Test results reported in patent US5120782A, “Substituted pyrrolo-pyridines pharmaceuticals” (Bayer Aktiengesellschaft, priority 1990, dated 1992).

What follows are compounds tested against T1, 3-hydroxy-3-methyl-glutaryl-coenzyme A (HMG-CoA) reductase (Rattus norvegicus, UniProt P51639) (assay: enzyme activity determination, inhibition of HMG-CoA reductase relative to mevinolin). Details: relative inhibitory potency; IC50 of reference mevinolin set at 1 and compared with simultaneously determined IC50 of test compound; 20 min pre-incubation, 60 min at 37° C.
T1 construct: the livers were removed from the animals and placed on ice; from tissue; host or cells: liver of male Rico rats fed colestyramine; 100,000 g (microsomal) pellet, frozen at -78° C
T1 sequence (P51639 1-887): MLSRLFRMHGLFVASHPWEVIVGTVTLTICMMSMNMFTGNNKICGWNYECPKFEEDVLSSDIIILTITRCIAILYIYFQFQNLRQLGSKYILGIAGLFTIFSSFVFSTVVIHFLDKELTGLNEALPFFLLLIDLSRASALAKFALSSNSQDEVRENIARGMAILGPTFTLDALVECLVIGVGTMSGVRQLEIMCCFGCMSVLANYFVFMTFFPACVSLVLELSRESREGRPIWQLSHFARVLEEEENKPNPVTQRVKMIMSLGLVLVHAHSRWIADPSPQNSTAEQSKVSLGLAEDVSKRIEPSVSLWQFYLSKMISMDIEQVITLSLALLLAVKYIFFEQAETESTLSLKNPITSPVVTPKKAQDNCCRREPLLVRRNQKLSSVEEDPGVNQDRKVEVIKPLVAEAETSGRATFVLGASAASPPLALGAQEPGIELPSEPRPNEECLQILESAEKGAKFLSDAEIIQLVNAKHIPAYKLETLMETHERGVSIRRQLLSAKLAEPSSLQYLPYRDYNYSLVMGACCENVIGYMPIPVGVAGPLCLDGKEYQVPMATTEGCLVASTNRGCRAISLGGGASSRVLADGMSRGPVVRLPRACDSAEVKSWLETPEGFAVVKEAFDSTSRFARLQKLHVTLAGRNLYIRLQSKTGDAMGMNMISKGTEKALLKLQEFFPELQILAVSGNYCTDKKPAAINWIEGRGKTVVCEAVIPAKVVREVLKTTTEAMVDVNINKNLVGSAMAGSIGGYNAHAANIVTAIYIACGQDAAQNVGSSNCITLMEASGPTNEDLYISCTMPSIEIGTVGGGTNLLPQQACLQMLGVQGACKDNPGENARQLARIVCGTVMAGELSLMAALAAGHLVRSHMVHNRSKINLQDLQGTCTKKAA
Assay type: biochemical, Male Rico rats (liver)
Method: The enzyme activity determination was carried out as modified by G. C. Ness et al., Archives of Biochemistry and Biophysics 197, 493-499 (1979). Male Rico rats (body weight 300-400 g) were treated with altromin powdered feed, to which 40 g of colestyramine/kg of feed had been added, for 11 days. After decapitation, the livers were removed from the animals and placed on ice. The livers were comminuted and homogenized 3 times in a Potter-Elvejem homogenizsr in 3 volumes of 0.1 M sucrose, 0.05 M KCl, 0.04 M Kx Hy phosphate, 0.03 M ethylene-diaminetetraacetic acid, 0.002 M dithiothreitol (SPE) buffer pH 7.2. The mixture was then centrifuged at 15,000 g for 15 minutes and the sediment was discarded. The supernatant was sedimented at 100,000 g for 75 minutes. The pellet was taken up in 1/4 volumes of SPE buffer, homogenized again and then centrifuged again at 100,000 g for 60 minutes. The pellet was taken up using a 5-fold amount of its volume of SPE buffer, homogenized and frozen and stored at -78° C. (=enzyme solution).
For testing, the test compounds (or mevinolin as a reference substance) were dissolved in dimethylformamide with the addition of 5 vol. % of 1 N NaOH and employed in the enzyme test using 10 μl in various concentrations. The test was begun after 20 minutes pre-incubation of the compounds with the enzyme at 37° C. The test mixture amounted to 0.380 ml and contained 4 μmol of glucose 6-phosphate, 1.1 mg of bovine serum albumin, 2.1 μmol of dithiothreitol, 0.35 μmol of NADP, 1 unit of glucose 6-phosphate dehydrogenase, 35 μmol of Kx Hy phosphate pH 7.2, 20 μl of enzyme preparation and 56 nmol of 3-hydroxy-3-methyl--glutaryl coenzyme A (glutaryl-3-^14 C) of 100,000 dpm.
After an incubation of 60 minutes at 37° C., the mixture was centrifuged and 600 μl of the supernatant was applied to a 0.7×4 cm column packed with a 5-chloride 100-200 mesh (anion exchanger). The column was washed with 2 ml of distilled water and 3 ml of Aquasol was added to the runnings plus washing water and counted in an LKB scintillation counter. IC50 values were determined by intrapolation by plotting the percentage inhibition against the concentration of the compound in the test. In order to determine the relative inhibitory potency, the IC50 value of the reference substance mevinolin was set at 1 and compared with the simultaneously determined IC50 value of the test compound.

| Compound | in vitro relative activity (Mevinolin = 1) |
| --- | --- |
| COC(=O)C[C@H](O)C[C@H](O)/C=C/c1c(C(C)C)nc2c(ccn2CCc2ccccc2)c1-c1ccc(F)cc1 (relative stereo) [Example 1f] | 17 |
| COC(=O)C[C@H](O)C[C@H](O)/C=C/c1c(C(C)C)nc2c(ccn2C(C)C)c1-c1ccc(F)cc1 (relative stereo) [Example 1c] | 13 |
| C#CCn1ccc2c(-c3ccc(F)cc3)c(/C=C/[C@@H](O)C[C@@H](O)CC(=O)OC)c(C(C)C)nc21 (relative stereo) [Example 1e] | 17 |
| COC(=O)C[C@H](O)C[C@H](O)/C=C/c1c(C(C)C)nc2c(ccn2Cc2ccccc2)c1-c1ccc(F)cc1 (relative stereo) [Example 1g] | 4 |
| C=CCn1ccc2c(-c3ccc(F)cc3)c(/C=C/[C@@H](O)C[C@@H](O)CC(=O)OC)c(C(C)C)nc21 (relative stereo) [Example 1h] | 33 |
| COC(=O)C[C@H](O)C[C@H](O)/C=C/c1c(C(C)C)nc2c(ccn2CC#N)c1-c1ccc(F)cc1 (relative stereo) [Example 1d] | 27 |
| COC(=O)C[C@H](O)C[C@H](O)/C=C/c1c(C(C)C)nc2c(ccn2C)c1-c1ccc(F)cc1 (relative stereo) [Example 1b] | 3 |
| COC(=O)C[C@H](O)C[C@H](O)/C=C/c1c(C(C)C)nc2[nH]ccc2c1-c1ccc(F)cc1 (relative stereo) [Example 1a, Methyl erythro-(E)-7-[4-(4-fluorophenyl)-6-isopropyl-1H-pyrrolo[2,3-b]pyridin-5-yl]3,5-dihydroxy-hept-6-enoate] | 3 |
| COC(=O)C[C@H](O)C[C@H](O)/C=C/c1c(C(C)C)nc2c(ccn2CCC#N)c1-c1ccc(F)cc1 (relative stereo) [Example 1j] | 24 |
| COC(=O)C[C@H](O)C[C@H](O)/C=C/c1c(C(C)C)nc2c(ccn2Cc2cccnc2)c1-c1ccc(F)cc1 (relative stereo) [Example 1i] | 9 |

Continued, values first:

| in vitro relative activity (Mevinolin = 1) | Compound |
| --- | --- |
| 3 | CC(C)c1nc2[nH]ccc2c(-c2ccc(F)cc2)c1/C=C/[C@@H](O)C[C@@H](O)CC(=O)O (relative stereo) [Example 2a, Sodium erythro-(E)-7-[4-(4-fluorophenyl)-6-isopropyl-1H-pyrrolo[2,3-b]pyridin-5-yl]-3,5-dihydroxy-hept-6-enoate] |
| 2 | CC(C)c1nc2c(ccn2Cc2ccccc2)c(-c2ccc(F)cc2)c1/C=C/[C@@H](O)C[C@@H](O)CC(=O)O (relative stereo) [Example 2g] |
| 10 | CC(C)c1nc2c(ccn2CCc2ccccc2)c(-c2ccc(F)cc2)c1/C=C/[C@@H](O)C[C@@H](O)CC(=O)O (relative stereo) [Example 2f] |
| 3 | CC(C)c1nc2c(ccn2C)c(-c2ccc(F)cc2)c1/C=C/[C@@H](O)C[C@@H](O)CC(=O)O (relative stereo) [Example 2b] |
| 3 | CC(C)c1nc2c(ccn2C(C)C)c(-c2ccc(F)cc2)c1/C=C/[C@@H](O)C[C@@H](O)CC(=O)O (relative stereo) [Example 2c] |
| 10 | C=CCn1ccc2c(-c3ccc(F)cc3)c(/C=C/[C@@H](O)C[C@@H](O)CC(=O)O)c(C(C)C)nc21 (relative stereo) [Example 2h] |
